Legend:
[1] = Cytotoxicity against human B cells assessed as ATP content at 30 uM by cell titer glo-based luminescence assay relative to control; conditions: read-out: Activity
[2] = Metabolic stability in human liver microsomes; format: ADME, microsome; conditions: read-out: Stability
[3] = target: T1, C-C chemokine receptor type 6 (Homo sapiens, UniProt P51684); test: Inhibition of human CCR6 expressed in CHO cells assessed as decrease in CCL20-induced reduction of forskolin-stimulated cAMP accumulation preincubated for 30 mins followed agonist addition measured after 30 mins by HTRF assay; format: functional, cell-based
T1 sequence (P51684 whole entry): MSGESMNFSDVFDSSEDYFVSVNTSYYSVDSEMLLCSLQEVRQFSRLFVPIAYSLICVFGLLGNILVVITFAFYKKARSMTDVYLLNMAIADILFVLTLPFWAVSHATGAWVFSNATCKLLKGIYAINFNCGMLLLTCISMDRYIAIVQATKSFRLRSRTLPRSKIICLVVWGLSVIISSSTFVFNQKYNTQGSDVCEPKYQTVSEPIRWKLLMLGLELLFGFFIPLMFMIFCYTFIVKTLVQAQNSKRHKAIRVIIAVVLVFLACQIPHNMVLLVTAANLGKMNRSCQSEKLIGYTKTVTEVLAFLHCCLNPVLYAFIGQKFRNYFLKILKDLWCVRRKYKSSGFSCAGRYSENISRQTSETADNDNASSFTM

[4] = Solubility of the compound in water at pH 6.8; format: physicochemical
[5] = Solubility of the compound in buffer solution at pH 6.8; format: physicochemical
[6] = target: T2, C-C chemokine receptor type 1 (Homo sapiens, UniProt P32246); test: Inhibition of human CCR1 expressed in CHO cells assessed as decrease in RANTES-induced reduction of forskolin-stimulated cAMP accumulation preincubated for 30 mins followed agonist addition measured after 30 mins by HTRF assay; format: functional, cell-based
T2 sequence (P32246 whole entry): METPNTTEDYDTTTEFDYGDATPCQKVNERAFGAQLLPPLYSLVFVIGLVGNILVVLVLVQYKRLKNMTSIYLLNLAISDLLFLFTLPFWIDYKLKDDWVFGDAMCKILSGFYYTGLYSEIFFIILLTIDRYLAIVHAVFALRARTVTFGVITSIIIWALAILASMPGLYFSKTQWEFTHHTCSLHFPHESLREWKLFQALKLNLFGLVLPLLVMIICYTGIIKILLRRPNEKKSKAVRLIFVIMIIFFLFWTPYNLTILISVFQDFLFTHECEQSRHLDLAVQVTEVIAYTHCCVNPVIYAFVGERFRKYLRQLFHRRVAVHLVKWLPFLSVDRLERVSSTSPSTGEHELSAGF

[7] = target: T3, C-C chemokine receptor type 7 (Homo sapiens, UniProt P32248); test: Inhibition of human CCR7 expressed in CHO cells assessed as decrease in CCL19-induced reduction of forskolin-stimulated cAMP accumulation preincubated for 30 mins followed agonist addition measured after 30 mins by HTRF assay; format: functional, cell-based
T3 sequence (P32248 whole entry): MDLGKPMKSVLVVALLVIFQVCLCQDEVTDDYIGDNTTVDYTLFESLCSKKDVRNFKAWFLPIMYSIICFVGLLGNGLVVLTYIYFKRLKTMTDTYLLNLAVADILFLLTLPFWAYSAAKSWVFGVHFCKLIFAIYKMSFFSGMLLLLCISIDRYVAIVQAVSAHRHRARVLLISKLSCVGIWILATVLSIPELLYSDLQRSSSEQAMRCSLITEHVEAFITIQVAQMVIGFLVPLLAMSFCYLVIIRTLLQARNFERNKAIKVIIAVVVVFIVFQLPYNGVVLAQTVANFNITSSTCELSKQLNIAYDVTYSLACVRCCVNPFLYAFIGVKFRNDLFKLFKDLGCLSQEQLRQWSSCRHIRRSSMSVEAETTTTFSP

[8] = target: T4, C-C chemokine receptor type 6 (Macaca mulatta, UniProt H9YX08); test: Inhibition of monkey CCR6 expressed in CHO cells assessed as decrease in CCL20-induced reduction of forskolin-stimulated cAMP accumulation preincubated for 30 mins followed agonist addition measured after 30 mins by HTRF assay; format: cell-based
T4 sequence (H9YX08 whole entry): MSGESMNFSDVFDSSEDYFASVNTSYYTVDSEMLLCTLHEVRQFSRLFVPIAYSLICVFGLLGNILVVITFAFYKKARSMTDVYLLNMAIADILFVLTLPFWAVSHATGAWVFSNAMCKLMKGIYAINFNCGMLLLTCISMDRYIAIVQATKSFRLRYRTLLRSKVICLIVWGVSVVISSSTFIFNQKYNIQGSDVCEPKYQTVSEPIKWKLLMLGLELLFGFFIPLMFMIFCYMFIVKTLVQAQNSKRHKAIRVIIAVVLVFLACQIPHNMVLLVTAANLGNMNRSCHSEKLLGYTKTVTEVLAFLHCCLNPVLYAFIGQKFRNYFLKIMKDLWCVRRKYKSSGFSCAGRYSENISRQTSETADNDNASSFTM

[9] = target: CYP3A4 (Homo sapiens, UniProt P08684); test: Inhibition of CYP3A4 (unknown origin) at 10 uM relative to control; format: ADME
CYP3A4, sequence (P08684 whole entry): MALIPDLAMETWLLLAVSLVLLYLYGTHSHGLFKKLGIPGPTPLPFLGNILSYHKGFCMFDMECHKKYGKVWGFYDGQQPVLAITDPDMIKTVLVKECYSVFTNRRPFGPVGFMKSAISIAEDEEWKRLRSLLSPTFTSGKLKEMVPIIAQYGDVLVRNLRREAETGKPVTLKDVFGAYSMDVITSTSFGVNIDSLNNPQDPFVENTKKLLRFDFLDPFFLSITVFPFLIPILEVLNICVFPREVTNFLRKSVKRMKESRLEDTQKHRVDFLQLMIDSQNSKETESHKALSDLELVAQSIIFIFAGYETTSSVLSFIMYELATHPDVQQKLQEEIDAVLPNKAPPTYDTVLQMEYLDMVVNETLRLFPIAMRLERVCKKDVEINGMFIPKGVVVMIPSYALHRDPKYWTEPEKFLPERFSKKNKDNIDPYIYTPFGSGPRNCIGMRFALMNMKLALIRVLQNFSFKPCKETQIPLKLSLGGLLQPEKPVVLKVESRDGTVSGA

[10] = target: T5, CYP2C8 (Homo sapiens, UniProt P10632); test: Inhibition of CYP2C8 (unknown origin) at 10 uM relative to control; format: ADME
T5 sequence (P10632 whole entry): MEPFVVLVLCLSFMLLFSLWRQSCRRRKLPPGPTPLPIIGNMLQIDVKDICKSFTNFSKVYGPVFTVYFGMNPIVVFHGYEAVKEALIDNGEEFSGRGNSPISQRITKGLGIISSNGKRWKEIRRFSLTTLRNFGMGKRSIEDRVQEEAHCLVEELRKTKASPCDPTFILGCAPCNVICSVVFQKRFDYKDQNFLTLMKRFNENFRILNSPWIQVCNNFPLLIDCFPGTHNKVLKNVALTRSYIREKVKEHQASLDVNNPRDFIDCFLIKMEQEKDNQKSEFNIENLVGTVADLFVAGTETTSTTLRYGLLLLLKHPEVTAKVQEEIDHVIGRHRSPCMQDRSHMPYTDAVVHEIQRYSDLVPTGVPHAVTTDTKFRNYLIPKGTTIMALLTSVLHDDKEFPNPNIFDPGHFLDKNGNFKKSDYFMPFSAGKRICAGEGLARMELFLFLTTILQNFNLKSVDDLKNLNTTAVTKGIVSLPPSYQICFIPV

[11] = Clearance in cynomolgus monkey at 0.1 mg/kg, iv or 1 mg/kg, po; format: ADME, organism-based, Macaca fascicularis; conditions: in vivo
[12] = Fraction unbound in cynomolgus monkey plasma at 0.1 mg/kg, iv or 1 mg/kg, po; format: ADME, organism-based, Macaca fascicularis
[13] = target: CYP2C9 (Homo sapiens, UniProt P11712); test: Inhibition of CYP2C9 (unknown origin) at 10 uM relative to control; format: ADME
CYP2C9, sequence (P11712 whole entry): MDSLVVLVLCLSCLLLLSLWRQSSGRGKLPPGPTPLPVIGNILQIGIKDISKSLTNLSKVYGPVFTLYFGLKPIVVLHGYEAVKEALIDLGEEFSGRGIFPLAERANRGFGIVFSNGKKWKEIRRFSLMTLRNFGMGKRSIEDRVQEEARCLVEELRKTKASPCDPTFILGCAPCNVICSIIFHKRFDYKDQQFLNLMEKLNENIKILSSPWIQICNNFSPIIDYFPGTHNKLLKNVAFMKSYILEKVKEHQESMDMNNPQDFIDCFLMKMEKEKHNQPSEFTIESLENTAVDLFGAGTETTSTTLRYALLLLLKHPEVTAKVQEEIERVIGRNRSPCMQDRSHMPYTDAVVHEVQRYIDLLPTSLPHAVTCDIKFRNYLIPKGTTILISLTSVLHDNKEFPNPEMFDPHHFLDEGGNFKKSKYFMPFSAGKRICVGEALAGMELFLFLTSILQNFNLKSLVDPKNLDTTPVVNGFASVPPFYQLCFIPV

[14] = target: T6, Voltage-gated inwardly rectifying potassium channel KCNH2 (Homo sapiens, UniProt Q12809); test: Inhibition of human ERG in presence of BSA
T6 sequence (Q12809 whole entry): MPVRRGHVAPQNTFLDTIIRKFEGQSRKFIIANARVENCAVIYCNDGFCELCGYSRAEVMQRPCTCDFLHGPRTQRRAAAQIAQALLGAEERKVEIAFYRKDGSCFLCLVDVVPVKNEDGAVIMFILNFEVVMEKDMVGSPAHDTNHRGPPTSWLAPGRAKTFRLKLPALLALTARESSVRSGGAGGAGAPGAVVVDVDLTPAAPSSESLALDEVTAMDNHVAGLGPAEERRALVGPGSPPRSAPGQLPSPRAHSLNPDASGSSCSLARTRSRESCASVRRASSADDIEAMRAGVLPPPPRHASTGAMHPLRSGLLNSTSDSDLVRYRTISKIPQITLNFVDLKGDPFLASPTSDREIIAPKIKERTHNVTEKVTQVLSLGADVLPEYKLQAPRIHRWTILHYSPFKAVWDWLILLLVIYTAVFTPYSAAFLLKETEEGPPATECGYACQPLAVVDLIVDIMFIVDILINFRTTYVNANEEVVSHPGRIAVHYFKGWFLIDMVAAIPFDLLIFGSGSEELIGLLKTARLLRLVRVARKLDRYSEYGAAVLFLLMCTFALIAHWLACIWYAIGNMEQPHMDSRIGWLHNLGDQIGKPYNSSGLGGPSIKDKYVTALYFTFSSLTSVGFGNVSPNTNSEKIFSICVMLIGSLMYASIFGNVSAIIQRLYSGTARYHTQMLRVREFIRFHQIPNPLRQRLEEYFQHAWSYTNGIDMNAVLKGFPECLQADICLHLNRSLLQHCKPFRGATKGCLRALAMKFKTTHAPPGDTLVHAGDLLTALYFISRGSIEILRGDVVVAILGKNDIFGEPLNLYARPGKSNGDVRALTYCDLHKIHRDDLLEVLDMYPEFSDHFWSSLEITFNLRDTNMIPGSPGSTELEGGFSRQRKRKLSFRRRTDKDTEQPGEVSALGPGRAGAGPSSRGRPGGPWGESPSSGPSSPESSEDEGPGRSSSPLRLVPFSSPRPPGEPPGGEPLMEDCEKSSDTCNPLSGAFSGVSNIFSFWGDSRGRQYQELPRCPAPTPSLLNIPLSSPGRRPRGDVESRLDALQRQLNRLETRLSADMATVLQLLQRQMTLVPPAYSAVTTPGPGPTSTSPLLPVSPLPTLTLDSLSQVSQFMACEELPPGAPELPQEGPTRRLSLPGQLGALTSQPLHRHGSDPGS

[15] = AUC (0 to 24 hrs) in cynomolgus monkey at 1 mg/kg, po; format: ADME, organism-based, Macaca fascicularis; parameters: dose 1 mg/kg, time < 24 hr, route oral; conditions: in vivo
[16] = Volume of distribution at steady state in cynomolgus monkey at 0.1 mg/kg, iv or 1 mg/kg, po; format: ADME, organism-based, Macaca fascicularis; conditions: in vivo, read-out: Vdss
[17] = AUC (0 to 24 hrs) in cynomolgus monkey at 0.1 mg/kg, iv; format: ADME, organism-based, Macaca fascicularis; parameters: dose 0.1 mg/kg, time < 24 hr, route intravenous; conditions: in vivo
[18] = Oral bioavailability in cynomolgus monkey at 1 mg/kg; format: ADME, organism-based, Macaca fascicularis; conditions: in vivo
[19] = target: T7, CYP1A2 (Homo sapiens, UniProt P05177); test: Inhibition of CYP1A2 (unknown origin) at 10 uM relative to control; format: ADME
T7 sequence (P05177 whole entry): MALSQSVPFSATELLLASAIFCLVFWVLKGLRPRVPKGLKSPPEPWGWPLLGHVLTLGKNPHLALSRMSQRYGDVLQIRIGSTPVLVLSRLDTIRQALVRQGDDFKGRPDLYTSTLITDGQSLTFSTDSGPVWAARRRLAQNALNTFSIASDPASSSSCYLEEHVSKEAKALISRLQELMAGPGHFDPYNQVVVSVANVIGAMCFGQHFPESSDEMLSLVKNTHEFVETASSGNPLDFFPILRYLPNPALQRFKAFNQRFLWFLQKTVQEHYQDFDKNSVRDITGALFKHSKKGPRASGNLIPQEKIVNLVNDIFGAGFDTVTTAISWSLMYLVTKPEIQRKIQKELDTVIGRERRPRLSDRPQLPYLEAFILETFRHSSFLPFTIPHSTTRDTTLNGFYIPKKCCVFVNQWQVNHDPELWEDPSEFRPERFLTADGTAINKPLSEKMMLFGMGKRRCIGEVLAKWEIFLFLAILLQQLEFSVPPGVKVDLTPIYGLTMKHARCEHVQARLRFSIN

[20] = target: CYP2D6 (Homo sapiens, UniProt P10635); test: Inhibition of CYP2D6 (unknown origin) at 10 uM relative to control; format: ADME
CYP2D6, sequence (P10635 whole entry): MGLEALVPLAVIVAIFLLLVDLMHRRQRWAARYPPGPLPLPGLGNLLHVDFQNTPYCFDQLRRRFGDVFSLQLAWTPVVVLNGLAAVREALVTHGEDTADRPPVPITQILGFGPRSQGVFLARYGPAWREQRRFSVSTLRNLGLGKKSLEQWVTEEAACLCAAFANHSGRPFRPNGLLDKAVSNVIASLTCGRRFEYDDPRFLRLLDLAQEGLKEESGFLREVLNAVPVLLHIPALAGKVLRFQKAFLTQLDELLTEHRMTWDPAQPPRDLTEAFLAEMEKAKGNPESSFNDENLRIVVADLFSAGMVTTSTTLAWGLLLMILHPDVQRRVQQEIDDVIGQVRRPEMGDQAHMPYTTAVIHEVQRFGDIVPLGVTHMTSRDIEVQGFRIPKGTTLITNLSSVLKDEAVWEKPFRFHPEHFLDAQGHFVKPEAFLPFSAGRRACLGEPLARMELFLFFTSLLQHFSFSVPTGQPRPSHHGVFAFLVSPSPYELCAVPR

[21] = target: T6, Voltage-gated inwardly rectifying potassium channel KCNH2; test: Inhibition of human ERG in absence of BSA

Row | IC50 [3] [µM] | IC50 [6] [µM] | IC50 [7] [µM] | Structure (SMILES) | further results
1 | > 30 | – | – | CC(=O)Nc1ccc(S(=O)(=O)N2CCC(Nc3ccc(C#N)cn3)CC2)cc1 | –
2 | > 30 | – | – | Cc1cccc(S(=O)(=O)N2CCC(Nc3ccc(C#N)cn3)CC2)c1 | –
3 | > 30 | – | – | COc1ccc(S(=O)(=O)N2CCC(Nc3ccc(C#N)cn3)C2)cc1 (stereo not given) | –
4 | – | – | – | CC(C)(C)c1ccc(S(=O)(=O)N2CCC(Nc3ccc(C#N)cn3)CC2)cc1 | solubility [4]: < 0.1 µg/mL; solubility [5]: < 0.1 µg/mL
5 | – | > 30 | > 30 | NC(=O)c1ccc(-c2ccc(S(=O)(=O)[C@H]3CC[C@H](Nc4ccc(C(F)(F)F)cn4)CC3)cc2)cc1 | –
6 | – | > 30 | > 30 | N#Cc1ccc(-c2ccc(S(=O)(=O)[C@H]3CC[C@H](Nc4ccc(C(F)(F)F)cn4)CC3)cc2)cc1 | –
7 | 0.29 | > 30 | > 30 | N#Cc1ccc(NC2CCN(S(=O)(=O)c3ccc(-c4ccccc4)cc3)CC2)nc1 | IC50 [8]: 0.28 µM
8 | 7.4 | – | – | COc1ccc(S(=O)(=O)N2CCC(Nc3cccc(C#N)n3)CC2)cc1 | –
9 | – | > 30 | 18 | NC(=O)c1ccc(-c2ccc(S(=O)(=O)[C@H]3CC[C@H](Nc4ccc(C(F)(F)F)cn4)CC3)cc2)cn1 | –
10 | > 30 | – | – | COc1ccc(S(=O)(=O)N2CCC(Nc3cc(C#N)ccn3)CC2)cc1 | –
11 | > 30 | – | – | COc1ccc(NC2CCN(S(=O)(=O)c3ccc(OC)cc3)CC2)cc1 | –
12 | 3.1 | > 30 | > 30 | Cc1ccc(S(=O)(=O)N2CCC(Nc3ccc(C#N)cn3)CC2)cc1 | IC50 [8]: 1.3 µM
13 | – | > 30 | 9.4 | NC(=O)c1cc(-c2ccc(S(=O)(=O)[C@H]3CC[C@H](Nc4ccc(C(F)(F)F)cn4)CC3)cc2)ccn1 | inhibition at 10 µM [9]: < 50%; inhibition at 10 µM [10]: < 50%; clearance [11]: 1.1 mL/min/kg; fraction unbound [12]: 0.01; inhibition at 10 µM [13]: 51%; inhibition (INH) [14]: < 50%; AUC(0-t) at 24 h [15]: 10000 ng·h/mL; Vd [16]: 0.704 L/kg; AUC(0-t) at 24 h [17]: 1550 ng·h/mL; bioavailability [18]: 65%; inhibition at 10 µM [19]: < 50%; inhibition at 10 µM [20]: < 50%; inhibition (INH) [21]: < 50%
14 | > 30 | – | – | N#Cc1ccc(NC2CCN(S(=O)(=O)c3cccc(-c4ccccc4)c3)CC2)nc1 | –
15 | 1.5 | – | – | N#Cc1ccc(NC2CCN(S(=O)(=O)c3ccc(Cl)cc3)CC2)nc1 | –
16 | 2.5 | – | – | COc1ccc(S(=O)(=O)N2CCC(Nc3ccc(C#N)cn3)CC2)cc1 | viability at 30 µM [1]: 72.7%; microsomal CLint [2]: 19 µL/min/mg

Row | Structure (SMILES) | IC50 [3] [µM] | IC50 [6] [µM] | IC50 [7] [µM] | further results
17 | COc1ccc(S(=O)(=O)N2CCC(Nc3ccc(C#N)cc3)CC2)cc1 | 1.9 | – | – | viability at 30 µM [1]: 44.9%; microsomal CLint [2]: 69 µL/min/mg

From ChEMBL document CHEMBL4229521, “Identification of a novel series of potent and selective CCR6 inhibitors as biological probes” (Bioorg Med Chem Lett, 2018)
